Numbers after ± are expanded uncertainties.
Assay: mn = molality of the nth substance listed, in mol/kg
Conditions: 298.15 K, Liquid, Frequency=10 MHz, Single path-length method

NCC(=O)N[C@@H](CC(N)=O)C(=O)NCC(=O)O [glycyl-L-asparaginylglycine] + O
speed of sound [m/s]
Conditions | 10000 kPa | 20000 kPa | 40000 kPa | 60000 kPa | 80000 kPa | 100000 kPa | 120000 kPa
m1 = 0.01982 | 1515.6 ± 0.71 | 1532.4 ± 0.71 | 1566 ± 0.71 | 1599.5 ± 0.71 | 1632.8 ± 0.7 | 1666 ± 0.7 | 1698.8 ± 0.69
m1 = 0.02619 | 1516.3 ± 0.71 | 1533.1 ± 0.71 | 1566.7 ± 0.71 | 1600.2 ± 0.71 | 1633.5 ± 0.7 | 1666.7 ± 0.7 | 1699.6 ± 0.7
m1 = 0.02894 | 1516.6 ± 0.71 | 1533.4 ± 0.71 | 1567.1 ± 0.71 | 1600.5 ± 0.71 | 1633.9 ± 0.7 | 1667 ± 0.7 | 1699.9 ± 0.7
m1 = 0.03507 | 1517.3 ± 0.71 | 1534.1 ± 0.71 | 1567.8 ± 0.71 | 1601.3 ± 0.71 | 1634.6 ± 0.7 | 1667.8 ± 0.7 | –
m1 = 0.03983 | 1517.8 ± 0.71 | 1534.6 ± 0.71 | 1568.3 ± 0.71 | 1601.8 ± 0.71 | 1635.1 ± 0.7 | 1668.3 ± 0.7 | –

CC(C)C[C@H](NC(=O)CN)C(=O)NCC(=O)O [glycyl-L-leucylglycine] + O
speed of sound [m/s]
Conditions | 10000 kPa | 20000 kPa | 40000 kPa | 60000 kPa | 80000 kPa | 100000 kPa | 120000 kPa
m1 = 0.02682 | 1517.5 ± 0.71 | 1534.2 ± 0.71 | 1567.7 ± 0.71 | 1601.1 ± 0.71 | 1634.4 ± 0.7 | 1667.5 ± 0.7 | 1700.2 ± 0.69
m1 = 0.03524 | 1518.6 ± 0.71 | 1535.4 ± 0.71 | 1568.9 ± 0.71 | 1602.3 ± 0.71 | 1635.6 ± 0.7 | 1668.7 ± 0.7 | 1701.4 ± 0.69
m1 = 0.04618 | 1520.2 ± 0.71 | 1537 ± 0.71 | 1570.6 ± 0.71 | 1604 ± 0.71 | 1637.2 ± 0.7 | 1670.2 ± 0.7 | 1702.9 ± 0.7
m1 = 0.05878 | 1522.1 ± 0.71 | 1538.9 ± 0.71 | 1572.4 ± 0.71 | 1605.8 ± 0.71 | 1639 ± 0.7 | 1672 ± 0.7 | 1704.7 ± 0.69
m1 = 0.06956 | 1523.7 ± 0.71 | 1540.5 ± 0.71 | 1574 ± 0.71 | 1607.3 ± 0.71 | 1640.6 ± 0.7 | 1673.5 ± 0.7 | 1706.2 ± 0.69
m1 = 0.07978 | 1525.2 ± 0.71 | 1542 ± 0.71 | 1575.5 ± 0.71 | 1608.8 ± 0.71 | 1642 ± 0.7 | 1674.9 ± 0.7 | 1707.5 ± 0.69

NCC(=O)N[C@@H](Cc1ccc(O)cc1)C(=O)NCC(=O)O [glycyl-L-tyrosylglycine] + O
speed of sound [m/s]
Conditions | 10000 kPa | 20000 kPa | 40000 kPa | 60000 kPa | 80000 kPa | 100000 kPa | 120000 kPa
m1 = 0.02297 | 1516.3 ± 0.71 | 1533.1 ± 0.71 | 1566.7 ± 0.71 | 1600.1 ± 0.71 | 1633.5 ± 0.7 | 1666.6 ± 0.7 | 1699.5 ± 0.7
m1 = 0.02401 | 1516.5 ± 0.71 | 1533.2 ± 0.71 | 1566.8 ± 0.71 | 1600.3 ± 0.71 | 1633.6 ± 0.7 | 1666.8 ± 0.7 | 1699.6 ± 0.69
m1 = 0.02562 | 1516.7 ± 0.71 | 1533.5 ± 0.71 | 1567 ± 0.71 | 1600.5 ± 0.71 | 1633.9 ± 0.7 | 1667 ± 0.7 | 1699.8 ± 0.7
m1 = 0.02676 | 1516.8 ± 0.71 | 1533.6 ± 0.71 | 1567.2 ± 0.71 | 1600.7 ± 0.71 | 1634 ± 0.7 | 1667.1 ± 0.7 | 1700 ± 0.7
m1 = 0.02756 | 1516.9 ± 0.71 | 1533.7 ± 0.71 | 1567.3 ± 0.71 | 1600.8 ± 0.71 | 1634.1 ± 0.7 | 1667.3 ± 0.7 | 1700.1 ± 0.69
m1 = 0.02905 | 1517 ± 0.71 | 1533.9 ± 0.71 | 1567.4 ± 0.71 | 1601 ± 0.71 | 1634.3 ± 0.7 | 1667.5 ± 0.7 | 1700.3 ± 0.7

NCC(=O)NCC(=O)NCC(=O)O [glycylglycylglycine] + O
speed of sound [m/s]
Conditions | 10000 kPa | 20000 kPa | 40000 kPa | 60000 kPa | 80000 kPa | 100000 kPa | 120000 kPa
m1 = 0.03621 | 1516.9 ± 0.71 | 1533.8 ± 0.71 | 1567.4 ± 0.71 | 1600.8 ± 0.71 | 1634.2 ± 0.7 | 1667.4 ± 0.7 | 1700.2 ± 0.69
m1 = 0.0487 | 1518.2 ± 0.71 | 1535 ± 0.71 | 1568.6 ± 0.71 | 1602.1 ± 0.71 | 1635.5 ± 0.7 | 1668.6 ± 0.7 | 1701.4 ± 0.7
m1 = 0.06185 | 1519.5 ± 0.71 | 1536.3 ± 0.71 | 1570 ± 0.71 | 1603.4 ± 0.71 | 1636.8 ± 0.7 | 1669.9 ± 0.7 | 1702.8 ± 0.7
m1 = 0.07503 | 1520.8 ± 0.71 | 1537.7 ± 0.71 | 1571.3 ± 0.71 | 1604.8 ± 0.71 | 1638.2 ± 0.7 | 1671.3 ± 0.7 | 1704 ± 0.7
m1 = 0.08705 | 1522.1 ± 0.71 | 1538.9 ± 0.71 | 1572.5 ± 0.71 | 1606.1 ± 0.71 | 1639.4 ± 0.7 | 1672.5 ± 0.7 | 1705.2 ± 0.7
m1 = 0.1005 | 1523.3 ± 0.71 | 1540.2 ± 0.71 | 1573.8 ± 0.71 | 1607.4 ± 0.71 | 1640.7 ± 0.71 | 1673.8 ± 0.7 | 1706.6 ± 0.7

From the NIST ThermoML archive (doi:10.1016/j.jct.2016.03.032)
